Measurements: BindingDB's records for doi:10.1016/s0022-2836(03)00862-3 (Morphochem, 2003)

Target: Methionine aminopeptidase (Staphylococcus aureus (strain MW2), UniProt P0A079)
Test: MetAP Inhibition Assay
Details: pH 7.5; 22 °C
Procedure: The MetAP reaction with Co2+ as a cofactor is coupled to a prolyl aminopeptidase (ProAP) using Met-Pro-p-nitroanilide as substrate. MetAP-catalyzed cleavage of the N-terminal methionine produces prolyl-p-nitroanilide, which is rapidly hydrolyzed by ProAP to release a chromogenic product. This allows the MetAP reaction to be continuously monitored at 405 nm on a UVVIS spectrophotometer. The initial rate was calculated from the early part of the reaction progress curve (<5 min). Activity assays were performed in triplicate using eight to 16 concentrations of substrate or inhibitor.

IC50 [nM] | SMILES
599 | Nc1n[nH]c(SCc2ccccc2)n1 [1,2,4-triazole derivative.]
> 100000 | Cn1cnnc1SCc1ccccc1 [1,2,4-triazole derivative.]
43.7 | CSCC[C@H](N)c1nnc(SCc2ccccc2)[nH]1 [1,2,4-triazole derivative.]
